Test results taken from patent US12391643B2, “Substituted amino-thiol and amino-disulfide compounds, and uses thereof” (The Regents of the University of California, priority 2019, dated 2025).

What was measured:
[1] = test system: C57BL/6 male mice on CDAHFD diet; assay: In vivo NASH model, prevention phase (drug in drinking water, 8 weeks); conditions: about 200 mg/kg/day in drinking water, n=8 per group
Procedure: (§1) In vivo NASH Models. NASH models from normal C57BL/6 male mice on CDAHFD diet (choline deficient, L-amino acid defined, high fat diet with restricted amount of methionine) were used. Two deuterated cystamine molecules were tested:
(§2) Two phase study was performed: (1) A prevention and (2) a treatment phase. 48 Mice were separated into nine groups of mice as described below. Histology at end of each study was performed looking for specific features of NASH (steatohepatitis, ballooning, fibrosis). The primary endpoint was plasma ALT measurement. Gene expression studies for fibrosis, inflammation were also performed.
Drug (D2 or D4) was administered in drinking water at a concentration to deliver animals about 200 mg/kg/day of drug. Daily weight. Volume of fluid drunk/day was also measured.
Prevention Phase. Group 1: Control mice on CDAHFD for 8 weeks. Blood drawn at 0, 4, and 8 weeks. Group 2: Mice on CDAHFD plus D2 at 200 mg/kg/day for 8 weeks. Blood drawn at 0, 4, and 8 weeks. Group 3: Mice on CDAHFD plus D4 at 200 mg/kg/day for 8 weeks. Blood drawn at 0, 4, and 8 weeks. Group 4: Control mice (n=4) continue on CDAHFD for 2 weeks. Blood at baseline and at 2 weeks. Liver histology at 2 weeks. Group 5: Mice (n=4) on CDAHFD for 2 weeks plus D2 at 200 mg/kg/day administered via daily gavage. Blood at 0 and 2 weeks and histology at 2 weeks. […]

Pooled human hepatocytes = assay: Hepatocyte elimination (in vitro metabolic stability, percent parent remaining by LC/MS/MS); type: in vitro ADME; conditions: compared with other forms
Excerpt: In vitro experiments with isotopically enriched cystamine and cysteamine in hepatocytes.
The assessment of in vitro metabolic stability provides a means to measure the susceptibility of a test compound to biotransformation by the liver. While liver microsomes primarily assess cytochrome P450 system-mediated metabolism (phase I metabolism), hepatocytes represent a complete, undisrupted metabolic system, including cofactors, and thus assess both phase I and phase II metabolism. In all cases, the metabolic stability of test compounds was determined by monitoring, via LC/MS/MS, the percent parent compound remaining versus time of incubation in human hepatocytes.
Pooled human hepatocytes (catalog number HMCS10, ThermoFischer Scientific) were thawed according to the manufacturers instructions. Thawed hepatocytes were washed by centrifugation and replated in Williams' Medium E supplemented with Heptocyte Plating Supplement Pack, Serum-containing.
Cells were diluted to 1,000,000 per ml in maintenance media (Williams' E Media supplemented with Hepatocyte Maintenance Supplement Pack, Serum-free). 500 μl of cell suspension was added to each well of a microtiter plate containing 500 μl of the deuterated test agent and placed on an orbital shaker at 120 rpm at 37 C. At the appropriate time point 50 μl aliquots were removed from the well and added to 50 μl of ice cold ethyl acetate and vortexed for 5 min and froze until chromatography analysis.

cystinotic fibroblasts = assay: Cystine re-accumulation after washout in cystinotic fibroblasts; type: cell-based, human; conditions: 100 uM for 3 h, then drug-free media up to 17 h; vs cystamine
Procedure: In vitro experiments with isotopically enriched cystamine in cystinotic fibroblasts. Fibroblasts from a de-identified cystinotic patient were split 3× from 2 plates into 36 plates. Three different drugs were used for the experiments: cystamine (non-labeled), d2-cystamine, and d4-cystamine. There were two time series for each drug. The first was with constant drug incubation and included: 0, 10 min, 30 min, 1 h, 3 h, and 5 h. The other series included a washout after 3 h drug incubation, using fresh media following a PBS wash, and included the timepoints: 0, 30 min, 1 h, 3 h, 5 h, and 17 h. A direct quench and extraction technique were used for harvesting all cells to minimize further oxidation and metabolism. This included 2× washes with PBS that included 5 mM N-ethylmaleimide for trapping free thiol groups, and then scraping the plates with an acidified organic solvent extraction solution containing both d4-cystine and d4-cysteamine (plus d-8 cystamine) as internal standards. All samples were run on an API 4500 triple quadrupole LC-MS/MS, with selective reaction monitoring (SRM/MRM) for the following compounds of interest: cystine, NEM-cysteamine, NEM-cysteine, cystamine, and 2-(methylthio)ethylamine. All data fit well to single exponential curves (either decay or association), except where mentioned.
Cystine measurement after washout: Fibroblast cultures were exposed to 100 uM cystamine/d2-cystamine/d4-cystamine for 3 h. Following incubation, cells were washed with PBS, and then incubated with regular media (containing FBS) for the following timepoints: 0 min, 30 min, 1 h, 3 h, 5 h, and 17 h. Cells were harvested identically as described previously.
Fibroblasts from a de-identified cystinotic patient were split 3× from 2 plates into 18 plates. Two different drugs were used for the experiments: D4n-cystamine, and D8-cystamine. There were two time series for each drug. The first was with constant drug incubation and included: 0, 15 min, 30 min, 1 hr, and 3 hr. The other series included a washout after 3 hours of drug incubation, using fresh media following a PBS wash, and included the time-points: 0, 1 hr, 3 hr, and 16 hr. A direct quench and extraction technique was used for harvesting all cells to minimize further oxidation and metabolism. […] All samples were run on an API 4500 triple quadruple LC-MS/MS, with selective reaction monitoring (SRM/MRM) for the following compounds of interest: cystine, NEM-cysteamine, NEM-cysteine, and cystamine. All data fit well to single exponential curves (either decay or association), except where mentioned.
Fibroblast cultures were exposed to 50 μM cystamine (D8 or D4n) for 3 hours. Following incubation, cells were washed with PBS and then incubated with regular mediate containing FBS for 1 h, 3 h, and 16 h. Cells were harvested as above. […] Cystine reaccumulation between D4n-cystamine and D8-cystamine are very similar, indicating similar levels of drug remaining during the washout timepoints (FIG. 15).

[2] = test system: C57BL/6 male mice on CDAHFD diet; assay: In vivo NASH model, treatment phase (8 weeks CDAHFD, then 2 weeks daily gavage); conditions: for Fatty deposits / fat globules in liver, H&E staining: 200 mg/kg/day
Procedure: Liver Inflammatory Cells. CD11b stains macrophages and microglia. CD11b staining of liver tissue was taken after 10 weeks of CDAHFD in three groups of mice. […] At 8 weeks, treatment group 2 (“C2”) mice started gavage feeding with D2-Cystamine at 200 mg/kg/day once daily gavage, and treatment group 3 (“C3”) mice received D4-Cystamine at 200 mg/kg/day by once daily gavage.
as §1, §2
Prevention Phase. Group 1: Control mice on CDAHFD for 8 weeks. Blood drawn at 0, 4, and 8 weeks. Group 2: Mice on CDAHFD plus D2 at 200 mg/kg/day for 8 weeks. Blood drawn at 0, 4, and 8 weeks. Group 3: Mice on CDAHFD plus D4 at 200 mg/kg/day for 8 weeks. Blood drawn at 0, 4, and 8 weeks. Group 4: Control mice (n=4) continue on CDAHFD for 2 weeks. Blood at baseline and at 2 weeks. Liver histology at 2 weeks. Group 5: Mice (n=4) on CDAHFD for 2 weeks plus D2 at 200 mg/kg/day administered via daily gavage. Blood at 0 and 2 weeks and histology at 2 weeks. Group 6: Mice (n=4) on CDAHFD for 2 weeks plus D4 at 200 mg/kg/day administered via daily gavage. Blood at 0 and 2 weeks and histology at 2 weeks.
Treatment Study Results. Groups 4, 5 and 6 mice received 8 weeks of CDAHDF diet before beginning treatment with deuterated compounds of the disclosure. During the treatment phase the mice continued to receive CDAHDF diet. Four mice were set in each group: control (C1) not receiving any drug; treatment (C2) receiving 200 mg/kg of cystamine D2 by once daily gavage; and treatment (C3) receiving 200 mg/kg cystamine D4 by once daily gavage.

[3] = 200 mg/kg once daily gavage, 2 weeks

- Rate of hepatocyte elimination / stability, comparison in words (Pooled human hepatocytes): most stable of the dimeric compounds
Compound: [2H]C([2H])(CN)SSC([2H])([2H])CN [D4-Cystamine, 2,2′-disulfanediylbis(ethan-2,2-d2-1-aminium) chloride]
- ALT levels at 8 weeks versus control group [1]: not between the control group and D4
- Rate of hepatocyte elimination / stability, comparison in words (Pooled human hepatocytes; listed as D4 cystamine): slower rate than D2 or non-deuterated cystamine
- Cystine re-accumulation after washout, comparison in words (cystinotic fibroblasts): very similar
- ALT versus untreated control group [2, 3]: significantly lower
- Ratio of body weight to liver weight (BW/LW) at end of study versus control [2, 3]: statistically significant
- Hepatic fibrosis, Sirius Red staining of liver sections ([2]; 200 mg/kg once daily gavage, 2 weeks, listed as D4): significant reduction in the amount of positive liver staining
- Hepatic fibrosis, Sirius Red staining of liver sections ([2]; 200 mg/kg once daily gavage, 2 weeks, listed as cystamine D4): very significant reduction in hepatic fibrosis
- Number of CD11b positive cells in liver tissue versus control group ([2]; 200 mg/kg/day once daily gavage, 2 weeks): statistically significant reduction
- Fatty deposits / fat globules in liver, H&E staining ([2]; 2 weeks): reduction in fatty globules
- Fatty deposits / fat globules in liver, H&E staining ([2]; 2 weeks, listed as D4): reduced fatty deposits compared to control
- Pericentral fibrosis in liver ([2]; Sirius Red staining, 2 weeks): less pericentral fibrosis
- Collagen 1 expression, qPCR, versus control ([2]; liver, 2 weeks of treatment): significant reduction
